What was measured:
[1] = Elimination from and retention in the body of the rat; type: in vivo
[2] = Blood level in the rat after one-time intravenous injection; type: in vivo; conditions: one-time i.v. injection, Ultravist 300 mg I/kg, example 4c 200 mg I/kg, especially first 10 minutes, average of three animals, FIG. 1
Method: The blood level in the rat was determined after one-time intravenous injection of 300 mg of I/kg of body weight of Ultravist®[]. and 200 mg of I/kg of body weight of the compound of example 4c [.diamond.]. The data represent the average value from three animals each.

Row | route of elimination [1] | elimination from the body ([1]; dose 100 mg of I/kg) | retention in the organs liver, kidney and spleen as well as in the remainder of the body ([1]; dose 100 mg of I/kg, 14 days after administration) | Compound | blood concentration over time, standardized to the administered dose [2]
1 | mainly through the kidney | complete elimination | 0.36 % of the dose | Octatetracontakis-{3-sodium carboxylatoformylamino-5-(2,3-dihydroxypropylcarbamoyl)-2,4,6-triiodobenzoyl} derivative of the lysine-alanine copolymer (K5)8 K4 K2 K-A--OH [Example 4] | remains very much longer in the blood space
2 | – | – | – | COCC(=O)Nc1c(I)c(C(=O)NCC(O)CO)c(I)c(C(=O)N(C)CC(O)CO)c1I (centres unmarked) [Ultravist, reference compound] | very much more quickly

Reference: patent US5756066A, “Iodine-containing peptides” (Schering Aktiengesellschaft, priority 1995, dated 1998)
